Earlier results as cited in patent US20140271573A1, “PHARMACO-CELLULAR THERAPEUTIC METHOD FOR THE TREATMENT OF MUSCULAR DYSTROPHIES” (PONTIFICIA UNIVERSIDAD CATÓLICA DE CHILE, priority 2013, published 2014).

How the values were obtained:
[1] = test system: dystrophin; details: cited from earlier work
[2] = test system: MES-13 cells; details: cited from earlier work
[3] = 12 DMD patients, six-month period

gentamicin
clinical benefits in DMD patients [1, 3]: no clinical benefits were observed
patients with dystrophin expression detected [1, 3]: 6 of the 12
dystrophin expression in muscle fibers, of normal levels ([1]; mdx mice and humans): 20%

C=C1CCC2C(C)(CO)C(O)CCC2(C)C1C=CC1=CCOC1=O (stereo not shown) [AP2, 14-deoxy-11,12-didehydroandrographolide]
reduction of caspase-3, TGF-β1 and PAI-1, relative activity ([2]; MES-13 cells, AP2 compared with AP1): potent activity than AP1
phenotypes indicating diabetic nephropathy in MES-13 cells ([2]; MES-13 cells): reduces
antioxidant ability in a cellular environment [2]: do not have antioxidant ability
intracellular oxidative states ([2]; high glucose cultured MES-13 cells): reduced
